Assay [1] has as its target T1, bradykinin 1 receptor (B1R) of the rat (Rattus norvegicus, UniProt P97583).
T1 construct: expressed in transfected cells
T1 sequence (P97583 1-337): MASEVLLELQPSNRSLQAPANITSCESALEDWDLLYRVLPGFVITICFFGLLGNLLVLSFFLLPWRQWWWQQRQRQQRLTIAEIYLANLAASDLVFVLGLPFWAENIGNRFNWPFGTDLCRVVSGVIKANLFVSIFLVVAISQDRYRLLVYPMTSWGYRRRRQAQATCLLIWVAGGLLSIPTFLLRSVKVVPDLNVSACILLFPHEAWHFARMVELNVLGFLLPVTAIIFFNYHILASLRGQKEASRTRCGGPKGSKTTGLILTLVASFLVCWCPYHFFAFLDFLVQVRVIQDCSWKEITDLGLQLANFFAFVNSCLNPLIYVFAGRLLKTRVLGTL
As to the kind of experiment: FLIPR Ca2+ assay, B1R antagonism, rat. Format: cell-based. The settings on record: CHO K1 cells with rat B1R gene (rB1R cells), Des-Arg9-bradykinin at EC80, % inhibition compared with the maximum achievable inhibition; for inhibition at 10 µM: CHO-K1, 10 μM test substance, read-out: B1R antagonism, rat [10 μM] % inhibition. In short, it runs like this: (§1)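 CHO K1 cells stably expressing human or rat B1R, loaded with Fluo-4 and read in FLIPR (ex 488, em 540 nm, peak fluorescence). Test compound 10 μM preincubated 10-20 min, then EC80 agonist added (Lys-Des-Arg9-bradykinin for human, Des-Arg9-bradykinin for rat); % inhibition relative to maximum achievable inhibition.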

Assay [2] deals with T2, human bradykinin 1 receptor (B1R) (Homo sapiens, UniProt P46663).
T2 construct: expressed in transfected cells
T2 sequence (P46663 1-353): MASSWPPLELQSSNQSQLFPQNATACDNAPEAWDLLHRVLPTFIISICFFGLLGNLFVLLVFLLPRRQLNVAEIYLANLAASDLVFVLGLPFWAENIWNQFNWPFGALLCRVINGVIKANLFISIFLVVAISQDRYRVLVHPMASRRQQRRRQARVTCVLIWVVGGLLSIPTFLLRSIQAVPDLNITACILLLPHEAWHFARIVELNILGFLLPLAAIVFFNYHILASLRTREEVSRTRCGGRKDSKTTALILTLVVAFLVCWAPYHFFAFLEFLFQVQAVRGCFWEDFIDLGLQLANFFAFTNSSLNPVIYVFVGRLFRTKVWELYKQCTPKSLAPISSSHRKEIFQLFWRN
The experiment in a line: FLIPR Ca2+ assay, B1R antagonism, human. Format: cell-based. The following applies: 10 μM test substance, CHO K1 cells with human B1R gene (hB1R cells), Lys-Des-Arg9-bradykinin at EC80, % inhibition compared with the maximum achievable inhibition; for inhibition at 10 µM: read-out: B1R antagonism, human [10 μM] % inhibition. The essentials: as §1

As for `COc1cc(C)c(S(=O)(=O)N2CCCC[C@H]2COCC(=O)N2CCC(OCCN3CCCC3)(c3cccc(Cl)c3)CC2)c(C)c1` [Example 56, 1-[4-(3-chlorophenyl)-4-(2-pyrrolidin-1-yl-ethoxy)-piperidin-1-yl]-2-[[(2S)-1-[(4-methoxy-2,6-dimethyl-phenyl)sulfonyl]-piperidin-2-yl]-methoxy]-ethanone], the inhibition at 10 µM in assay [1] was 100%; in assay [2], 99%.
For the compound `COc1cc(C)c(S(=O)(=O)N2CCCCC2CCCC(=O)N2CCC(OCCN3CCCC3)(c3cccc(F)c3)CC2)c(C)c1` (centres unmarked) [Example 89, 1-[4-(3-fluorophenyl)-4-(2-pyrrolidin-1-yl-ethoxy)-piperidin-1-yl]-4-[1-[(4-methoxy-2,6-dimethyl-phenyl)sulfonyl]-piperidin-2-yl]-butan-1-one], the inhibition at 10 µM stood at 99% in assay [1] and 100% in assay [2].
The corresponding values for `COc1cc(C)c(S(=O)(=O)N2CCCC[C@H]2COCC(=O)N2CCC(OCCn3cncn3)(c3cccnc3)CC2)c(C)c1` [Example 59, 2-[[(2S)-1-[(4-methoxy-2,6-dimethyl-phenyl)sulfonyl]-piperidin-2-yl]-methoxy]-1-[4-pyridin-3-yl-4-[2-(1H-[1,2,4]triazol-1-yl)-ethoxy]-piperidin-1-yl]-ethanone] are 102% and 100%.
The corresponding values for `O=C(CC1CCCCN1S(=O)(=O)c1cccc(C(F)(F)F)c1)N1CCC(OCCCN2CCCC2)(c2cccnc2)CC1` (centres unmarked) [Example 42, 1-(4-(pyridin-3-yl)-4-(3-(pyrrolidin-1-yl)propoxy)piperidin-1-yl)-2-(1-(3-(trifluoromethyl)phenylsulfonyl)piperidin-2-yl)ethanone] are 48% and 52%.
Turning to `O=C(COCC1COc2ccccc2N1S(=O)(=O)c1ccccc1C(F)(F)F)N1CCC(OCCN2CCCC2)(c2ccncc2)CC1` (centres unmarked) [Example 112, 1-[4-pyridin-4-yl-4-(2-pyrrolidin-1-yl-ethoxy)-piperidin-1-yl]-2-[[4-[[2-(trifluoromethyl)-phenyl]sulfonyl]-3,4-dihydro-2H-[1,4]benzoxazin-3-yl]-methoxy]-ethanone], the inhibition at 10 µM in assay [1] was 81%; in assay [2], 100%.
As for `CN1CCN(CCCOC2(c3cccnc3)CCN(C(=O)CC(NS(=O)(=O)c3ccc4ccccc4c3)c3ccccc3)CC2)CC1` (centres unmarked) [Example 39, N-(3-(4-(3-(4-methylpiperazin-1-yl)propoxy)-4-(pyridin-3-yl)piperidin-1-yl)-3-oxo-1-phenylpropyl)naphthalene-2-sulfonamide], the inhibition at 10 µM in assay [1] is 98%; in assay [2], 50%.
The corresponding values for `Cc1cc(S(=O)(=O)N2CCCCC2CCC(=O)N2CCC(OCCCN3CCCCC3)(c3cccnc3)CC2)c(C)cc1Cl` (centres unmarked) [Example 12, 3-(1-(4-chloro-2,5-dimethylphenylsulfonyl)piperidin-2-yl)-1-(4-(3-(piperidin-1-yl)propoxy)-4-(pyridin-3-yl)piperidin-1-yl)propan-1-one] are 46% and 103%.
The corresponding values for `COc1cc(C)c(S(=O)(=O)N2CCCCC2COCC(=O)N2CCC(OCCN3CCCC3)(c3cccnc3)CC2)c(C)c1` (centres unmarked) [Example 20, 2-((1-(4-methoxy-2,6-dimethylphenylsulfonyl)piperidin-2-yl)methoxy)-1-(4-(pyridin-3-yl)-4-(2-(pyrrolidin-1-yl)ethoxy)piperidin-1-yl)ethanone] are 102% and 104%.
The corresponding values for `Cc1cccc(Cl)c1S(=O)(=O)N(CCOCC(=O)N1CCC(OCC[N+]2([O-])CCCC2)(c2cccc(F)c2)CC1)C1CC1` [Example 53, 2-chloro-N-cyclopropyl-N-[2-[2-[4-(3-fluorophenyl)-4-[2-(1-oxido-pyrrolidin-1-ium-1-yl)-ethoxy]-piperidin-1-yl]-2-oxo-ethoxy]-ethyl]-6-methyl-benzenesulfonic acid amide] are 102% and 100%.
As for `COc1cc(C)c(S(=O)(=O)N(CCOCC(=O)N2CCC(OCCN3CCCC3)(c3cccnc3)CC2)C2CC2)c(C)c1` [Example 3, N-cyclopropyl-4-methoxy-2,6-dimethyl-N-(2-(2-oxo-2-(4-(pyridin-3-yl)-4-(2-(pyrrolidin-1-yl)ethoxy)piperidin-1-yl)ethoxy)ethyl)benzenesulfonamide], the inhibition at 10 µM in assay [1] turned out to be 101%; in assay [2] it was 100%.
In the case of “3-[[1-[(4-methoxy-2,6-dimethyl-phenyl)sulfonyl]-piperidin-2-yl]-methoxy]-1-[4-pyridin-3-yl-4-(2-pyrrolidin-1-yl-ethoxy)-piperidin-1-yl]-propan-1-one [Example 120]”, the “B1R antagonism, rat [10 μM] % inhibition” value in assay [1] (10 μM test substance) is on record as 103%. Also, in assay [2], the “B1R antagonism, human [10 μM] % inhibition” value is 100%.
Turning to `COc1cc(C)c(S(=O)(=O)N2CCCCC2CCCC(=O)N2CCC(OCCN3CCCC3)(c3cccnc3)CC2)c(C)c1` (centres unmarked) [Example 87, 4-[1-[(4-methoxy-2,6-dimethyl-phenyl)sulfonyl]-piperidin-2-yl]-1-[4-pyridin-3-yl-4-(2-pyrrolidin-1-yl-ethoxy)-piperidin-1-yl]-butan-1-one], the inhibition at 10 µM amounted to 102% in assay [1] and 100% in assay [2].
The corresponding values for `Cc1cc(S(=O)(=O)N2CCCCC2CCC(=O)N2CCC(OCCCN3CCCC3)(c3cccnc3)CC2)c(C)cc1Cl` (centres unmarked) [Example 43, 3-(1-(4-chloro-2,5-dimethylphenylsulfonyl)piperidin-2-yl)-1-(4-(pyridin-3-yl)-4-(3-(pyrrolidin-1-yl)propoxy)piperidin-1-yl)propan-1-one] are 67% and 86%.
The corresponding values for `COc1cc(C)c(S(=O)(=O)N2c3ccccc3CC[C@H]2COCC(=O)N2CCC(OCCN3CCCC3)(c3cccnc3)CC2)c(C)c1` [Example 1, (S)-2-((1-(4-methoxy-2,6-dimethylphenylsulfonyl)-1,2,3,4-tetrahydroquinolin-2-yl)methoxy)-1-(4-(pyridin-3-yl)-4-(2-(pyrrolidin-1-yl)ethoxy)piperidin-1-yl)ethanone] are 100% and 99%.
The corresponding values for `COc1cc(C)c(S(=O)(=O)N(CCOCC(=O)N2CCC(OCCN3CCCC3)(c3cccnc3)CC2)c2ccccc2)c(C)c1` [Example 98, 4-methoxy-2,6-dimethyl-N-[2-[2-oxo-2-[4-pyridin-3-yl-4-(2-pyrrolidin-1-yl-ethoxy)-piperidin-1-yl]-ethoxy]-ethyl]-N-phenyl-benzenesulfonic acid amide] are 103% and 100%.
Consider `COc1cc(C)c(S(=O)(=O)N(C)CCOCC(=O)N2CCC(OCCN3CCCC3)(c3cccc(F)c3)CC2)c(C)c1` [Example 81, N-[2-[2-[4-(3-fluorophenyl)-4-(2-pyrrolidin-1-yl-ethoxy)-piperidin-1-yl]-2-oxo-ethoxy]-ethyl]-4-methoxy-N,2,6-trimethyl-benzenesulfonic acid amide], for which the inhibition at 10 µM in assay [1] is 97%; in assay [2], 100%.
The corresponding values for `Cc1cc(S(=O)(=O)N2CCCCC2CCC(=O)N2CCC(OCCN3CCCC3)(c3cccnc3)CC2)c(C)cc1Cl` (centres unmarked) [Example 25, 3-(1-(4-chloro-2,5-dimethylphenylsulfonyl)piperidin-2-yl)-1-(4-(pyridin-3-yl)-4-(2-(pyrrolidin-1-yl)ethoxy)piperidin-1-yl)propan-1-one] are 72% and 86%.
The corresponding values for `COc1cc(C)c(S(=O)(=O)N2CCCCC2COCCC(=O)N2CCC(OCCN3CCCC3)(c3cccc(F)c3)CC2)c(C)c1` (centres unmarked) [Example 121, 1-[4-(3-fluorophenyl)-4-(2-pyrrolidin-1-yl-ethoxy)-piperidin-1-yl]-3-[[1-[(4-methoxy-2,6-dimethyl-phenyl)sulfonyl]-piperidin-2-yl]-methoxy]-propan-1-one] are 99% and 100%.
The corresponding values for `COc1cc(C)c(S(=O)(=O)N2c3ccccc3CCC2COCC(=O)N2CCC(OCCN3CCCC3)(c3cccnc3)CC2)c(C)c1` (centres unmarked) [Example 101, 2-[[1-[(4-methoxy-2,6-dimethyl-phenyl)sulfonyl]-1,2,3,4-tetrahydro-quinolin-2-yl]-methoxy]-1-[4-pyridin-3-yl-4-(2-pyrrolidin-1-yl-ethoxy)-piperidin-1-yl]-ethanone] are 102% and 100%.

The term inhibition denotes the change of the read-out against control, counted positive when it falls.

Values taken from patent publication US8318769B2, “Substituted sulfonamide compounds” (Gruenethal GmbH, priority 2008, dated 2012).
